Key:
D(3) dopamine receptor = D(3) dopamine receptor (Chlorocebus aethiops, UniProt P52703)
Description: Displacement of [3H]-YM 09151 from african monkey Dopamine receptor D3

D(4) dopamine receptor = biological target: T1, D(4) dopamine receptor (Homo sapiens, UniProt P21917)
T1 sequence (P21917 whole entry): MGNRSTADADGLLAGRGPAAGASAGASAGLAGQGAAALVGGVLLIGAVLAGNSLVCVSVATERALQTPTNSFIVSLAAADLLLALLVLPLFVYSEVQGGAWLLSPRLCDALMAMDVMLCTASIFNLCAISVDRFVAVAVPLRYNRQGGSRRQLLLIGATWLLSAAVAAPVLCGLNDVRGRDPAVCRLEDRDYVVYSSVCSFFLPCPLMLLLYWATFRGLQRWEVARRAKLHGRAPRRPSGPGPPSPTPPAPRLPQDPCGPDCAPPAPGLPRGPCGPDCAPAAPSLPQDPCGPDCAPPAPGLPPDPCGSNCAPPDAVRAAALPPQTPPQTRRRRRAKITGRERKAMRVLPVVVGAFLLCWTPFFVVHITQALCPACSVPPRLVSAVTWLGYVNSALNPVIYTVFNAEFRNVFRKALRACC
Description: Displacement of [3H]-YM 09151 from human Dopamine receptor D4

D(2) dopamine receptor = D(2) dopamine receptor (Rattus norvegicus, UniProt P61169); assay: Binding affinity towards Dopamine receptor D2 of rat using [3H]spiperone
Sequence of D(2) dopamine receptor (P61169 whole entry): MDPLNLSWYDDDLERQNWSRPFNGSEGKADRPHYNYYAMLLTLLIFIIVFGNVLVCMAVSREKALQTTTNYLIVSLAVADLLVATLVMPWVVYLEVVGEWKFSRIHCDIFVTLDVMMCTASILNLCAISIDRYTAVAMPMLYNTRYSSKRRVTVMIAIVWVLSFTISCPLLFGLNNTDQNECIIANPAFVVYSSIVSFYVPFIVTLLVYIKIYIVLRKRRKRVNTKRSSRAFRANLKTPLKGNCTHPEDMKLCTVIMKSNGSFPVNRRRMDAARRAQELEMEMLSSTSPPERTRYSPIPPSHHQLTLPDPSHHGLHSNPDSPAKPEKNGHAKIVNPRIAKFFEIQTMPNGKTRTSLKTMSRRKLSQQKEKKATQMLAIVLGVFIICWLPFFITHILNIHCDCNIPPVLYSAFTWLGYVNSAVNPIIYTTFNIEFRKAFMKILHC

Sequence of D(3) dopamine receptor (P52703 whole entry): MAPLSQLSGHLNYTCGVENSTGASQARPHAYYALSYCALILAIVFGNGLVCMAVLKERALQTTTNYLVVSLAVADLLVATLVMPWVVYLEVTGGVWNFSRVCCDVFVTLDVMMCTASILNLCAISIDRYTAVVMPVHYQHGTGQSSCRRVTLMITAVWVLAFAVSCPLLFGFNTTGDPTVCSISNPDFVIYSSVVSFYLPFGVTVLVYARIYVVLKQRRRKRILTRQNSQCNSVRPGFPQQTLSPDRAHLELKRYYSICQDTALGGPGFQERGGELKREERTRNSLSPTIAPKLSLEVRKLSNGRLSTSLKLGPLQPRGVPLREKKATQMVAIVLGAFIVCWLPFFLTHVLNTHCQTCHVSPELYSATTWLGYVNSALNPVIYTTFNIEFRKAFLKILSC

Ki (D(3) dopamine receptor)	Ki (D(4) dopamine receptor)	Ki (D(2) dopamine receptor)	SMILES
61 nM	9 nM	–	c1ccc(C2CCN(Cc3ccn(-c4ccccc4)c3)CC2)cc1
–	–	0.8 nM	COc1ccccc1N1CCN(Cc2ccc(-c3ccccc3)n2C)CC1
477 nM	325 nM	–	OC1(c2ccc(Cl)cc2)CCN(Cc2ccn(-c3ccccc3)c2)CC1
–	1.3 nM	–	COc1ccccc1N1CCN(Cc2ccn(-c3ccccc3)c2)CC1
150 nM	1.6 nM	–	c1ccc(-n2ccc(CN3CCN(c4ccccn4)CC3)c2)cc1
49 nM	4 nM	–	c1ccc(N2CCN(Cc3ccn(-c4ccccc4)c3)CC2)cc1
420 nM	492 nM	–	OC1(c2cccc(C(F)(F)F)c2)CCN(Cc2ccn(-c3ccccc3)c2)CC1

SMILES	Ki (D(3) dopamine receptor)	Ki (D(4) dopamine receptor)	Ki (D(2) dopamine receptor)
O=c1[nH]c2ccccc2n1C1CCN(Cc2ccn(-c3ccccc3)c2)CC1	398 nM	646 nM	–
C1=C(c2ccccc2)CCN(Cc2ccn(-c3ccccc3)c2)C1	–	4 nM	–
O=C1NCN(c2ccccc2)C12CCN(Cc1ccn(-c3ccccc3)c1)CC2	90 nM	201 nM	–
CN1CCN(C2=Nc3cc(Cl)ccc3Nc3ccccc32)CC1 [CLOZAPINE]	466 nM	–	–
